In patent US7135307B2, “Gamma three protease” (Merck & Co., Inc., priority 2001, dated 2006):
Where a SMILES comes first, the peptide text is derived from it. [ ]: non-standard residue; d: D form. The star is where a group is joined. Sta = CC(C)C[C@H](N)[C@@H](O)CC(=O)O; Isovaleryl = CC(C)CC(=O)*

What was measured:
Format in all cases: biochemical
[1] = tested on: γ-secretase activity associated with presenilin-1/presenilin-2; test: γ-secretase activity in HeLa S3 cell membranes, C100Flag substrate, ECL detection of Aβ
γ3 protease [2] = test: γ3 protease activity in HeLa S3 cell membranes, C100Flag substrate, ECL detection of Aβ
Text: The source of γ3 protease was a membrane preparation from HeLa S3 cells prepared as in Example 9. The production of the γ3 protease substrate and the conditions for cleavage are described in Example 10. The procedure for determining whether the substrate had been cleaved by γ3 protease was as in Example 6.
(§1) Aβ peptides were detected using a sandwich assay employing an antibody to capture the peptide and an antibody to detect the presence of the peptide. Detection was achieved by using electrochemiluminescence (ECL) (Yang et al., 1994, Bio/Technology 12:193–194; Khorkova et al., 1998, J. Neurosci. Meth. 82:159–166) and an Origen 1.5 Analyzer (Igen Inc., Gaithersburg, Md.).
(§2) Capture was performed using the 4G8 murine monoclonal antibody (Senetek PLC, Maryland Heights, Mo.). The 4G8 murine monoclonal antibody binds an epitope in the Aβ peptide (about amino acids 18–21 of SEQ.ID.NO.:3) that is immediately distal to the α-secretase cleavage site. The 4G8 monoclonal antibody was biotinylated with Biotin-LC-Sulfo-NHS-Ester (Igen Inc., Gaithersburg, Md.).
Detection was achieved using the G2-10 murine monoclonal antibody and the FCA3542 rabbit antibody. […]
The G2-10 and FCA3542 antibodies were ruthenylated with TAG-NHS Ester (Igen Inc., Gaithersburg, Md.). Aβ(x-40) was detected with biotinylated 4G8 and ruthenylated G2-10. Aβ(x-42) was detected with biotinylated 4G8 and ruthenylated FCA3542. […]

[3] = tested on: γ-secretase activity associated with presenilins 1 and 2; test: γ-secretase activity in ES-PBD18 membranes (wild-type mouse embryonic stem cells), generation of Aβ1-40 and Aβ1-42; details: 1 μM inhibitor, FIG. 2A, 2B
Method: The presence of γ3 protease activity having a pH optimum of about 6 is clearly seen. […] Again, the presence of γ3 protease activity having a pH optimum of about 6 is clearly seen. The source of γ3 protease was ES-PBD18 membranes. ES-PBD18 membranes were prepared from wild-type mouse embryonic stem cells according to the procedure of Example 11.
(§3) Another method for product detection, employing electrochemiluminescence with a capture antibody and an antibody specific for either Aβ1-40 or Aβ1-42, is described in Example 6 below.
as §1
• 1. […]

γ3 protease [4] = test: Inhibition of γ3 protease production of Aβ peptides by pepstatin A, ECL detection
Text: as §3, §1, §2
Detection was achieved using the G2-10 murine monoclonal antibody and the FCA3542 rabbit antibody. The G2-10 murine monoclonal antibody (provided by K. Beyreuther, University of Heidelberg, Germany) binds the C-terminus that is exposed after γ3 protease-mediated cleavage to generate amino acid 40 of the Aβ1-40 peptide. (Ida et al., 1996, J. Biol. Chem. 271:22908–22914). The FCA3542 rabbit antibody (provided by F. Checler, IPMC du CNRS, Valbonne, France) binds the C-terminus that is exposed after γ3 protease-mediated cleavage to generate amino acid 42 of the Aβ1-42 peptide. (Barelli et al., 1997, Mol. Med. 3:695–707.)
The G2-10 and FCA3542 antibodies were ruthenylated with TAG-NHS Ester (Igen Inc., Gaithersburg, Md.). Aβ(x-40) was detected with biotinylated 4G8 and ruthenylated G2-10. Aβ(x-42) was detected with biotinylated 4G8 and ruthenylated FCA3542.

Structure (SMILES) | inhibition of the activity of the γ secretase complex containing presenilin-1 or presenilin-2 ([1]; general statement) | block of γ-secretase activity ([1]; pH 7.0 (pH optimum for presenilin-1/presenilin-2 associated γ-secretase), HeLa S3 membranes, FIG. 1) | susceptibility of γ3 protease activity to inhibition (γ3 protease [2]; general statement) | γ-secretase-type activity remaining in the presence of inhibitor (γ3 protease) (γ3 protease [2]; pH 6.0 (pH optimum for γ3 protease), HeLa S3 membranes, FIG. 1) | inhibition of γ-secretase activity associated with presenilins 1 and 2 [3] | inhibition of production of Aβ1-40 by γ3 protease (γ3 protease [4]; FIG. 3A) | inhibition of production of Aβ1-42 by γ3 protease (γ3 protease [4]; FIG. 3B) | inhibition of γ3 protease activity (γ3 protease [4]; general statement (aspartyl class protease))
CC(C)C[C@H](NC(=O)[C@H](Cc1ccccc1)C[C@@H](O)[C@H](Cc1ccccc1)NC(=O)OC(C)(C)C)C(=O)N[C@@H](Cc1ccccc1)C(N)=O [L-685,458, {1S-Benzyl-4-R-[1-(1S-carbamoyl-2-phenylethylcarbamoyl)-1S-3-methylbutylcarbamoyl]-2R-hydroxy-5-phenylpentyl}carbamic acid tert-butyl ester] | inhibited | essentially completely block | not susceptible to inhibition | significant γ-secretase activity remains | essentially completely inhibit |  |  | 
CC(C)CC(=O)N[C@H](C(=O)N[C@H](C(=O)N[C@@H](CC(C)C)[C@@H](O)CC(=O)N[C@@H](C)C(=O)N[C@@H](CC(C)C)[C@@H](O)CC(=O)O)C(C)C)C(C)C [pepstatin A] (Isovaleryl-VV[Sta]A[Sta]-OH) |  |  |  |  |  | inhibits | inhibits | inhibited
